Results on 7 compounds are retold here after patent US20240148000A1, “METHOD FOR CONTROLLING HARMFUL ARTHROPODS OR HARMFUL NEMATODES USING ZOANTHAMINE” (SUMITOMO CHEMICAL COMPANY, LIMITED, priority 2021, published 2024).

Data set [1] relates to cotton worm (Spodoptera litura). Nature of the data set: Test Method 1: foliar spray on cabbage seedling, cotton worm larvae. The class given is in vivo. As to conditions: 200 ppm, sprayed 20 mL/seedling on cabbage, third-instar larvae, after 6 days, Formulation Example 5, 25° C. As for the experimental part: (§1) Next, Test Examples are used to show efficacy of the Present compounds on controlling harmful arthropods and harmful nematodes. The following Test Examples were carried out at 25° C. Also, the “untreated group” represents a group where the similar treatment procedure to that of the treated group except not using the test compound is done.
(§2) Test compound is made to a formulation according to a similar method to that described in the Formulation Example 5, and thereto is added water containing 0.03 v/v % of Shindain (registered trademark) to prepare a diluted solution containing a prescribed concentration of the test compound.
Cabbage (Brassicae oleracea) seedling (on the developmental stage of the third to fourth true leaf) is planted in a container, and the diluted solutions are sprayed to the seedling at a ratio of 20 mL/seedling. Thereafter, 10 of third-instar larvae of cotton worm (Spodoptera litura) are released. After 6 days, the number of the surviving insects is counted, and the mortality of insects is calculated by the following equation.
(§3) Mortality (%)=(1−Number of surviving insects/10)×100
The test was conducted by making the prescribed concentration 200 ppm and using each of the below-mentioned Present compounds as a test compound according to the Test Method 1.

For data set [2], the system named is cat flea (Ctenocephalides felis). Nature of the data set: Test Method 11: coated container contact test, cat flea adults. The class given is in vivo. As to conditions: 20 mg/m^2 coated on inner face of container, after 2 days. As for the experimental part:
as §1
The test compound is dissolved into acetone containing a surfactant, then the solution is poured into a 20 mL container, the solution is coated uniformly on the inner face of the container so that the test compound will be 20 mg/m^2 and the surfactant will be 40 mg/m^2, and the container is then dried.
Ten (10) cat flea (Ctenocephalides felis) adults are released into the container, and the container is then covered with lid. After the prescribed time, the state of the cat flea is examined, and the mortality is calculated by the following equation.
(§4) Mortality (%)=(Number of dead insects/Number of tested insects)×100
The test was conducted by making the prescribed time 2 days and using each of the below-mentioned Present compounds as a test compound.

Data set [3] concerns common house mosquito (Culex pipiens pallens) female adults. The data set can be described thus: Test Method 10: coated container contact test, common house mosquito female adults. The class given is in vivo. As to conditions: 10 mg/m^2 coated on inner face of container, after 1 day. As for the experimental part: as §1
The test compound is dissolved into acetone containing a surfactant, then the solution is poured into a 20 mL container, the solution is coated uniformly on the inner face of the container so that the test compound will be 10 mg/m^2 and the surfactant will be 40 mg/m^2, and the container is then dried.
Five (5) common house mosquito (Culex pipiens pallens) female adults are released into the container, and the container is then covered with lid. After the prescribed time, the state of the common house mosquito is examined, and the mortality is calculated by the following equation.
as §4
The test was conducted by making the prescribed time 1 day and using each of the below-mentioned Present compounds as a test compound.

Data set [4] relates to common house mosquito (Culex pipiens pallens) last instar larvae. Nature of the data set: Test Method 9: common house mosquito larvae in diluted solution. The settings on record: 3.5 ppm in water, Formulation Example 1, last instar larvae, after 1 day. The class given is in vivo. On the procedure: as §1
The test compound is made to a formulation according to a similar method to that described in the Formulation Example 1, and thereto is added water to prepare a diluted solution containing a prescribed concentration of the test compound.
Into the diluted solution, 30 last instar larvae of common house mosquito (Culex pipiens pallens) are released, and after 1 day, the state of the common house mosquito larvae is examined, and the mortality of insects is calculated by the following equation.
as §4
The test was conducted by making the prescribed concentration 3.5 ppm and using each of the below-mentioned Present compounds as a test compound according to the Test Method 9.

The subject of data set [5] is southern root-knot nematodes (Meloidogyne incognita). Nature of the data set: Test Example 12: tomato seedlings in soil contaminated with southern root-knot nematodes. The class given is in vivo. As to conditions: 60 mg in 60 mL: 20 mL mixed with 400 mL contaminated soil, 40 mL irrigated; tomato roots after 28 days; untreated group 5. On the procedure:
as §1
The Present compound 1 or 2 (60 mg) was dissolved into acetone (600 μL) containing 5% of Tween 20, and then thereto was added water to prepare a solution (60 mL).
The solution (20 mL) and soil (400 mL) contaminated with southern root-knot nematodes (Meloidogyne incognita) were mixed, and roots of healthy tomato (Lycopersicon esculentum) seedlings (third to fourth leaf stage) were transferred to the soil. Shortly after the transfer, the remaining solution (40 mL) was irrigated to the soil of the tomato seedlings.
After 28 days, the roots were pulled out of the soil, washed with water, and the degree of root damage (degree of root-knot) was investigated according to the Zeck's root-knot index (Zeck, W. M. (1971): Pflanzenschutz-Nachichten. Bayer AG, 24, 141-144.).
• 0: No root-knot is observed. • 1: Several small root-knots can be recognized by careful observation. • 2: Several small root-knots similar to 1 can be easily identified. • 3: There are many small root-knots, and some of which are fused. […]

For data set [6], the system named is diamondback moth (Plutella xylostella). The data set can be described thus: Test Method 2: foliar spray on cabbage seedling, diamondback moth larvae. The class given is in vivo. The settings on record: third-instar larvae, after 6 days. On the procedure: as §1, §2
Cabbage (Brassicae oleracea) seedling (on the developmental stage of the third to fourth true leaf) is planted in a container, and the diluted solutions are sprayed to the seedling at a ratio of 20 mL/seedling. Thereafter, 10 of third-instar larvae of diamondback moth (Plutella xylostella) are released to the container. After 6 days, the number of the surviving insects is counted, and the mortality of insects is calculated by the following equation.
as §3
The test was conducted by making the prescribed concentration 200 ppm and using each of the below-mentioned Present compounds as a test compound according to the Test Method 2.
The test was conducted by making the prescribed concentration 500 ppm and using the below-mentioned Present compound as a test compound according to the Test Method 2 except for formulating it according to the Formulation Example 1 instead of the Formulation Example 5.

The subject of data set [7] is brown planthoppers (Nilaparvata lugens). Nature of the data set: Test Method 5: foliar spray on rice seedling, brown planthoppers. The class given is in vivo. As to conditions: 200 ppm, sprayed 10 mL/seedling on rice, third-instar larvae, after 6 days. As for the experimental part:
as §1
The test compound is made to a formulation according to a similar method to that described in the Formulation Example 5, and thereto is added water containing 0.03 v/v % of Shindain (registered trademark) to prepare a diluted solution containing a prescribed concentration of the test compound.
Rice (Oryza sativa) seedling (on the developmental stage of the second true leaf) is planted in a container, and the diluted solutions are sprayed to the seedling at a ratio of 10 mL/seedling. Thereafter, 20 of third-instar larvae of brown planthoppers (Nilaparvata lugens) are released onto the rice seedling. After 6 days, the number of the surviving insects is examined and the mortality of insects is calculated by the following equation.
Mortality={1−Number of surviving insects/20}×100
The test was conducted by making the prescribed concentration 200 ppm and using each of the below-mentioned Present compounds as a test compound according to the Test Method 5.

The subject of data set [8] is P388 mouse leukemia cells. The settings on record: Nonpatent Document 2; cited from earlier work.
[9] abbreviates: 200 ppm, sprayed 20 mL/seedling on cabbage, Formulation Example 5, 25° C.

Regarding `CC1=CC(=O)[C@H]2CC(=O)[C@H]3[C@@](C)(C[C@@]45OC(=O)C[C@]3(C)[C@]4(C)CC[C@]34C[C@@H](C)C[C@H](CN35)O4)[C@@H]2C1` [compound 1], the mortality in data set [1], in data set [2], in data set [3], in data set [4], in data set [6] (setting [9]) and in data set [7] was 100% in each case. The “root-knot index (Zeck's root-knot index)” value in data set [5] was 2 (Several small root-knots similar to 1 can be easily identified.).
For `CC1=CC(=O)[C@@H]2[C@@H](C1)[C@]1(C)C[C@@]34OC(=O)C[C@@](C)([C@H]1C(=O)[C@@H]2C)[C@]3(C)CC[C@]12C[C@@H](C)C[C@H](CN14)O2` [compound 2], the mortality in data set [1], in data set [2], in data set [3], in data set [4], in data set [6] (setting [9]) and in data set [7] was 100% each time. Also, in data set [5], the “root-knot index (Zeck's root-knot index)” value was 2 (Several small root-knots similar to 1 can be easily identified.).
Turning to `CC1=CC(=O)[C@H]2CC(=O)[C@H]3[C@@](C)(C(=O)[C@@]45OC(=O)C[C@]3(C)[C@]4(C)CC[C@]34C[C@@H](C)C[C@H](CN35)O4)[C@@H]2C1` [compound 3], the mortality (commonly the percentage killed) in data set [4] came to 100%.
Regarding `CC1=CC(=O)[C@@H]2[C@@H](C1)[C@]1(C)C(=O)[C@@]34OC(=O)C[C@@](C)([C@H]1C(=O)[C@@H]2C)[C@]3(C)CC[C@]12C[C@@H](C)C[C@H](CN14)O2` [compound 4], the mortality turned out to be 100% in data set [4] and 80% in data set [6] (500 ppm, Formulation Example 1 instead of 5, sprayed 20 mL/seedling on cabbage).
Consider `CC1=CC(=O)[C@H]2CC(=O)[C@H]3[C@@](C)(C[C@@]45OC(=O)C[C@]3(C)[C@]4(C)CC[C@]34C[C@@H](C)C[C@H](CN35)O4)[C@@H]2C1.Cl` [compound 5], for which the mortality in data set [1], in data set [3], in data set [6] (setting [9]) and in data set [7] was 100% throughout.
Take `CC1=CC(=O)[C@@H]2[C@@H](C1)[C@]1(C)C[C@@]34OC(=O)C[C@@](C)([C@H]1C(=O)[C@@H]2C)[C@]3(C)CC[C@]12C[C@@H](C)C[C@H](CN14)O2.Cl` [compound 6]: the mortality in data set [1], in data set [3], in data set [6] (setting [9]) and in data set [7] was 100% each time.
With norzoanthamine [Present compound 1], in data set [8], the “growth of P388 mouse leukemia cells” value was “inhibits the growth”.
